Measurements from ChEMBL document CHEMBL1141295, “Constituents of Ocimum sanctum with antistress activity” (J Nat Prod, 2007).
Activity calls are given as the source filed them.

Experiments:
Assay type in all cases: functional, organism-based
Design in all cases: dose 40 mg/kg
Rattus norvegicus [1] = experiment: Increase in acute stress induced adrenal gland weight in Sprague-Dawley rat at 40 mg/kg, po
Rattus norvegicus [2] = experiment: Increase in acute stress induced plasma corticosterone levels in Sprague-Dawley rat at 40 mg/kg, po
Rattus norvegicus [3] = experiment: Increase in acute stress induced plasma creatine levels in Sprague-Dawley rat at 40 mg/kg, po
Rattus norvegicus [4] = experiment: Decrease in acute stress induced adrenal hypertrophy in Sprague-Dawley rat at 40 mg/kg, po
Rattus norvegicus [5] = experiment: Increase in acute stress induced glucose levels in Sprague-Dawley rat at 40 mg/kg, po

Measured: Activity

CCCCCCCCCCCCCCCCCC(=O)OC[C@H](CO[C@@H]1O[C@H](CO[C@H]2O[C@H](CO)[C@H](O)[C@H](O)[C@H]2O)[C@H](O)[C@H](O)[C@H]1O)OC(=O)CCCCCCCCCCCCC
active: Rattus norvegicus [1] | Rattus norvegicus [2] | Rattus norvegicus [3]

C=CCc1ccc(O[C@@H]2O[C@H](CO)[C@@H](O)[C@H](O)[C@H]2O)c(O)c1
active: all assays above

CCCCCCCCCCCCCCCCCCCCCC(=O)O[C@H](COC(=O)CCCCCCCCCCCCCCC)CO[C@H]1O[C@H](CN)[C@@H](O)[C@H](O)[C@H]1O
active: all assays above
